# Source: patent US4191780A, “Bromhexine derivatives and process for making same” (priority 1978, dated 1980)
# “Also recorded” adds a separate entry of the source.
# Assays:
# [1] = Long-term toxicity in rats: mortality, pathology and general state
# Experimental: Long-term toxicity (16 weeks) of IFT 1026 is tested in comparison to the parent compound (Bromhexine).
# [2] = Long-term toxicity in rats (16 weeks): mean body weight; format: in vivo
# Excerpt: Effect of daily oral administration of various doses of
# IFT 1026 and Bromhexine on mean body weight of rats.
# [3] = Long-term toxicity in rats: organ weights at necropsy; format: in vivo; conditions: fresh weight, daily oral 250 mg/kg Bromhexine, 350 mg/kg IFT 1026
# Experimental: Effect of daily oral administration of 250 mg/kg Bromhexine and 350 mg/kg
# organ weights of rats, expressed as grams of fresh weight.
# [4] = tested on: Cough elicited by 15% citric acid spray; experiment: Antitussive activity in mice, citric acid spray cough; format: in vivo; conditions: Mus musculus, oral, 1 hour after administration, confidence limits P = 0.05
# Experimental: (§1) (6) Antitussive effect in Guinea-pigs and mice
# (§2) Cough is elicited by 15% citric acid spray in both species, according to the method by Harsany et al. (Boll. Chim. Farm. 112, 691, 1973). The effect was tested 1 hour after oral administration and 30 min. after intraperitoneal application of the antitussive agents on mice and Guinea-pigs respectively.
# (§3) ED50 values of the drugs are computed by the method of Litchfield and Wilcoxon (Litchfield, J. T. Jr., and Wilcoxon F., J. Pharmacol. exp. Ther. 96,99--1949).
# [5] = Bromsulphtalein (BSP) clearance in rats treated with the lower dose; format: in vivo; conditions: 30 min after 50 mg/kg BSP i.v., lower dose of drug
# Experimental: The possibility to use BSP for the diagnosis of lesions in liver parenchyma is well known. Bromsulphtalein (BSP) clearance was made according to Carpi and Parenti (Carpi, C. and M. A. Parenti, Il Farmaco, Ed. Pr. vol. 17, page 45, 1962). Thirty minutes after the i.v. administration of 50 mg/kg BSP to control rats, the mean plasma level of the dyestuff is 80±12 mcg/ml.
# % of rate showing BSP plasma levels greater than 80 mcg/ml
# (control values) and 160 mcg/ml (two-fold control values)
# [6] = tested on: Pain induced by a chemical stimulus; experiment: Siegmund Test: pain induced by a chemical stimulus (acetic acid writhing); format: in vivo, mice; conditions: mouse, 300 mg/kg oral
# Experimental: (§4) Two test methods are used for establishing the action of Bromhexine and IFT 1026 on noci-ceptive stimuli in mice.
# (§5) (a) Pain induced by a chemical stimulus according to the method of Siegmund (Siegmund E., Cadmier, R., and Lu, G. Proc. Soc. exp. Biol. N.Y. 95, 729--1957). The mice distributed at random into groups of 10 animals, are deprived of solid food for the 18-hour period prior to the test. […] Thirty minutes after treatment the mice are injected i.p. with 0.1 ml/10 g of a 1.5% acetic acid solution. The writhing is recorded for a 20 min. period following this i.p. injection.
# noci-ceptive stimuli = experiment: Study of analgesic action on mice (both tests); format: in vivo; conditions: 300 mg/kg oral
# Experimental: as §4, §5
# (§6) (b) Pain induced by a physical stimulation according to the hot-plate test technique by Eddy and Leimbach (Eddy, N. B. and Leimbach, O., J. Pharmacol. exp.Ther. 107, 383--1953). The temperature of the plate was kept at 57° C. Groups of 12 mice are treated as described under (a) above. The reaction times are measured 15 min. before treatment (Ro) and 4 times after the administration (every 15 min). Only the maximal response is taken into account (Rmax).
# [7] = tested on: Cough elicited by 15% citric acid spray; experiment: Antitussive activity in Guinea-pigs, citric acid spray cough; format: in vivo; conditions: Cavia porcellus, ip, 0.5 h, intraperitoneal, 30 min. after application, confidence limits P = 0.05
# Experimental: as §1, §2, §3
# [8] = Eight-day toxicity studies in mice, lethality (i.p.); format: in vivo; conditions: for Total number of deaths: 8 days
# Excerpt: Eight-day toxicity studies of IFT 1026 and Bromhexine in mice.
# [9] = Long-term toxicity in rats: hematological parameters; format: in vivo, rat; conditions: daily oral Bromhexine 250 mg/kg, IFT 1026 350 mg/kg
# Experimental: The hematological and biochemical values relating to the groups under treament with the above reported doses are shown in Tables Nos. 4 and 5. These values are virtually the same for both treated and control animals.
# Effect of daily oral administration of Bromhexine 250 mg/kg
# and IFT 1026 350 mg/kg on the hematological parameters in […]
# [10] = Long-term toxicity in rats: biochemical parameters; format: in vivo, rat; conditions: daily oral 250 mg/kg Bromhexine, 350 mg/kg IFT 1026
# [11] = tested on: Pain induced by a physical stimulation; experiment: Hot-plate Test (Eddy and Leimbach): pain induced by a physical stimulation; format: in vivo, mice; conditions: mouse, 300 mg/kg oral, plate at 57° C.
# Experimental: as §4, §6
compound,measurement,setting,value
"COc1ccccc1OCC(=O)Nc1c(Br)cc(Br)cc1CN(C)C1CCCCC1 [IFT 1026, N-(2-guaiacol-glycolyl-amino-3,5-dibromobenzyl)N-cyclohexylmethylamine]",animals that died during the study,"[1]; rat, in vivo",2 animals
same,"changes in general state of health, behaviour, body weight, blood and viscera","[1]; rat, in vivo",no significant changes
same,long-term toxicity in the rats,"[1]; rat, in vivo",weak
same,toxicity compared with Bromhexine (parent compound),"[1]; rats, subacute and long-term administration",less toxic than Bromhexine; also recorded: less toxic than the parent compound
same,"body weight, mean ± SE","[2]; females, 70 mg/kg daily oral, 0 days",125 ± 6 g
same,"body weight, mean ± SE","[2]; females, 70 mg/kg daily oral, 21 days",181 ± 5 g
same,"body weight, mean ± SE","[2]; females, 70 mg/kg daily oral, 45 days",218 ± 2 g
same,"body weight, mean ± SE","[2]; females, 70 mg/kg daily oral, 60 days",242 ± 2 g
same,"body weight, mean ± SE","[2]; females, 350 mg/kg daily oral, 0 days",118 ± 2 g
same,"body weight, mean ± SE","[2]; females, 350 mg/kg daily oral, 21 days",179 ± 5 g
same,"body weight, mean ± SE","[2]; females, 350 mg/kg daily oral, 45 days",225 ± 7 g
same,"body weight, mean ± SE","[2]; females, 350 mg/kg daily oral, 60 days",232 ± 10 g
same,"body weight, mean ± SE","[2]; females, 1400 mg/kg daily oral, 0 days",122 ± 5 g
same,"body weight, mean ± SE","[2]; females, 1400 mg/kg daily oral, 21 days",173 ± 7 g
same,"body weight, mean ± SE","[2]; females, 1400 mg/kg daily oral, 45 days",211 ± 5 g
same,"body weight, mean ± SE","[2]; females, 1400 mg/kg daily oral, 60 days",221 ± 8 g
same,"body weight, mean ± SE","[2]; males, 70 mg/kg daily oral, 0 days",117 ± 7 g
same,"body weight, mean ± SE","[2]; males, 70 mg/kg daily oral, 21 days",220 ± 4 g
same,"body weight, mean ± SE","[2]; males, 70 mg/kg daily oral, 45 days",310 ± 4 g
same,"body weight, mean ± SE","[2]; males, 70 mg/kg daily oral, 60 days",370 ± 6 g
same,"body weight, mean ± SE","[2]; males, 350 mg/kg daily oral, 0 days",123 ± 8 g
same,"body weight, mean ± SE","[2]; males, 350 mg/kg daily oral, 21 days",226 ± 6 g
same,"body weight, mean ± SE","[2]; males, 350 mg/kg daily oral, 45 days",290 ± 7 g
same,"body weight, mean ± SE","[2]; males, 350 mg/kg daily oral, 60 days",368 ± 4 g
same,"body weight, mean ± SE","[2]; males, 1400 mg/kg daily oral, 0 days",121 ± 5 g
same,"body weight, mean ± SE","[2]; males, 1400 mg/kg daily oral, 21 days",222 ± 7 g
same,"body weight, mean ± SE","[2]; males, 1400 mg/kg daily oral, 45 days",295 ± 8 g
same,"body weight, mean ± SE","[2]; males, 1400 mg/kg daily oral, 60 days",365 ± 9 g
same,variations in the body weights versus control group,"[2]; rats, exception: Bromhexine 1000 mg/kg/day",no significant variations
same,"organ weight, Adrenal glands",[3]; females,4.6 ± 0.1 10^-2 grams
same,"organ weight, Brain",[3]; females,19.4 ± 1 10^-1 grams
same,"organ weight, Heart",[3]; females,7.3 ± 0.8 10^-1 grams
same,"organ weight, Kidneys",[3]; females,18.2 ± 0.4 10^-1 grams
same,"organ weight, Liver",[3]; females,10.1 ± 0.3 grams
same,"organ weight, Lungs",[3]; females,14.2 ± 1.1 10^-1 grams
same,"organ weight, Spleen",[3]; females,6.5 ± 0.2 10^-1 grams
same,"organ weight, Adrenal glands",[3]; males,3.7 ± 0.5 10^-2 grams
same,"organ weight, Brain",[3]; males,13.4 ± 0.4 10^-1 grams
same,"organ weight, Heart",[3]; males,7.1 ± 0.4 10^-1 grams
same,"organ weight, Kidneys",[3]; males,18.3 ± 0.4 10^-1 grams
same,"organ weight, Liver",[3]; males,9.7 ± 0.9 grams
same,"organ weight, Lungs",[3]; males,9.1 ± 0.8 10^-1 grams
same,"organ weight, Spleen",[3]; males,6.3 ± 0.3 10^-1 grams
same,ED50,[4],298 mg/kg
same,% showing BSP plasma levels >160 mcg/ml,"[5]; X^2 = 0.43, N.S.",5.5%
same,"rats showing BSP plasma levels >160 mcg/ml, number/tested","[5]; X^2 = 0.43, N.S.",1/18
same,% showing BSP plasma levels >80 mcg/ml,"[5]; X^2 = 0.7, N.S.",28%
same,"rats showing BSP plasma levels >80 mcg/ml, number/tested","[5]; X^2 = 0.7, N.S.",5/18
same,"Siegmund Test, number of writhings for a 20 min. period, mean ± SE",[6],34 ± 3
same,Responses to algogenic stimuli,noci-ceptive stimuli,not suppressed
same,ED50,[7],189 mg/kg
same,Number of deaths at day 3,[8]; daily dose 450 mg/k,1
same,Total number of deaths,[8]; daily dose 450 mg/k,1/10
same,Number of deaths at day 2,[8]; daily dose 900 mg/k,1
same,Total number of deaths,[8]; daily dose 900 mg/k,1/10
same,"RBC, mean ± SE",[9]; females,817 ± 58 10^6 /ml
same,"WBC, mean ± SE",[9]; females,179 ± 26 10^2 /ml
same,"RBC, mean ± SE",[9]; males,657 ± 60 10^6 /ml
same,"WBC, mean ± SE",[9]; males,140 ± 10 10^2 /ml
same,"A/G ratio (Albumin/Globulin), mean ± SE",[10]; females,2.6 ± 0.3
same,"BUN, mean ± SE",[10]; females,41.1 ± 2 mg %
same,"GLUCOSE, mean ± SE",[10]; females,85.9 ± 8 mg %
same,"SGOT, mean ± SE",[10]; females,25.1 ± 0.3 Units/ml
same,"SGPT, mean ± SE",[10]; females,13.2 ± 0.4 Units/ml
same,"TOTAL PROTEIN, mean ± SE",[10]; females,30.6 ± 2.4 mg/mL
same,"A/G ratio (Albumin/Globulin), mean ± SE",[10]; males,2.2 ± 0.1
same,"BUN, mean ± SE",[10]; males,39.9 ± 5 mg %
same,"GLUCOSE, mean ± SE",[10]; males,73.7 ± 5 mg %
same,"SGOT, mean ± SE",[10]; males,24.5 ± 0.6 Units/ml
same,"SGPT, mean ± SE",[10]; males,13.1 ± 0.7 Units/ml
same,"TOTAL PROTEIN, mean ± SE",[10]; males,28.2 ± 2.1 mg/mL
same,"Hot-plate Test (R max/Ro), mean ± SE",[11],1.62 ± 0.26
